Key:
RIPK1 = biological target: T1, RIPK1 (Homo sapiens, UniProt Q13546); assay: RIPK1 ADP-Glo biochemical kinase assay; settings: read-out: RIPK1 ADP-Glo Kinase (IC50)
T1 sequence (Q13546 1-671): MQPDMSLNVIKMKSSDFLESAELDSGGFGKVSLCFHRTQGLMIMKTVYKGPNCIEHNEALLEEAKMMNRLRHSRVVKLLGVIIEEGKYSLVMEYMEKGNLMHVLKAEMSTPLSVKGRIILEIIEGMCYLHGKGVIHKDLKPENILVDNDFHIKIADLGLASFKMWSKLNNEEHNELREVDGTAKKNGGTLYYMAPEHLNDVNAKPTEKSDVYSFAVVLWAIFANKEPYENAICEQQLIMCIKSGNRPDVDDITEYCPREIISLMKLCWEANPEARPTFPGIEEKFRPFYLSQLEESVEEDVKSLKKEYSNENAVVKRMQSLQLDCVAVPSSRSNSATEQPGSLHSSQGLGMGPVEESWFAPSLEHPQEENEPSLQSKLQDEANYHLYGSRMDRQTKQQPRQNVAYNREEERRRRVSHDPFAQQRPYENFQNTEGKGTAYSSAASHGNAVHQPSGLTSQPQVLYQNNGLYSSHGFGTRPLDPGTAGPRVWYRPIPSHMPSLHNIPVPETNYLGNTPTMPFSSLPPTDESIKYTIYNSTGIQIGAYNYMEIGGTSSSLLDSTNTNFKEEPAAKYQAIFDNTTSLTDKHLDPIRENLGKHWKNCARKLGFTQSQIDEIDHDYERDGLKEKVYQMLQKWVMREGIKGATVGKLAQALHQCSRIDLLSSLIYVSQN
Outline: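 RIPK1 at 31 ng/well in Tris pH 7.4 buffer with MgCl2, BSA, DTT and MnCl2, reacted with compounds (duplicate) for 30 min at 30 °C. ADP formed detected by ADP-Glo: 40 min stop/depletion, then 30 min detection reagent at room temperature; luminescence read.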

U937 cells = assay: U937 cell necroptosis assay (TNFa + zVAD, CellTiter-Glo recovery); type: cell-based; settings: Homo sapiens, U-937, 18 h, TNFa 2 ng/mL + zVAD-fmk, read-out: U937 Zvad TNF CTG Recovery, U937, TNFa + zVAD (IC50)
Outline: (§1)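 Human U937 (50K/well, 60 uM zVAD-fmk medium, plated same day) or murine L929 (10K/well, plated 18 h, then 40 uM zVAD-fmk medium) were grown in RPMI with 10% FBS. Both were pretreated with compound for 1 h at 37 °C before TNFa at 2 ng/mL final. Viability was read by CellTiter-Glo luminescence after 18 h.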

[1] = Brain penetration: free brain/plasma ratio in in vivo pharmacokinetic studies; settings: brain and plasma (unbound); in vivo pharmacokinetic studies in rodents; read-out: free brain/plasma ratio (Bu/Pu)
Protocol: Female C57BL/6 mice are randomly grouped and weighed on Day −1. On the day of the study (Day 0), mice are administered vehicle or test article by oral gavage. Fifteen minutes after oral administration of test agents, each mouse is administered an intraperitoneal (IP) injection of solution containing recombinant human tumor necrosis factor alpha (TNF-a, 25.0 μg) and zVAD-FMK (200 μg). Body temperature is measured at 0 hours (before IP injections) and every hour via rectal probe temperature measuring device. Three (3) hours after IP injections of TNF-a and zVAD/FMK, mice are euthanized by CO2 asphyxiation and blood is collected via cardiac puncture. Serum and plasma are harvested for determination of cytokine and compound levels, respectively. Separate groups of mice (satellite mice) are included for the determination of compound levels in plasma at the time of administration of TNFa/zVAD-FMK. […] Brain penetration may be assessed by evaluating free brain/plasma ratio (Bu/Pu) as measured in vivo pharmacokinetic studies in rodents. […] In this method, the passive membrane permeability (Papp) and the P-gp (P-glycoprotein) substrate efflux potential are determined using a MDCKII-MDR1 cell line as an in vitro model of the effective permeability of a compound through the BBB.

L929 cells = assay: L929 cell necroptosis assay (TNFa + zVAD, CellTiter-Glo recovery); type: cell-based, murine; settings: Mus musculus, L929, 18 h, TNFa 2 ng/mL + zVAD-fmk, read-out: L929-CTG-recovery, L929, TNFa + zVAD (IC50)
Outline: as §1

| SMILES | IC50 (RIPK1) | IC50 (U937 cells) | Kp,uu (unbound brain/plasma ratio) [1] | IC50 (L929 cells) |
| --- | --- | --- | --- | --- |
| Cc1cccc(Cc2cnn(C(=O)N[C@H]3COc4ccc(C#CC5CCOCC5)cc4N(C)C3=O)c2)n1 [I-104, (S)—N-(5-Methyl-4-oxo-7-((tetrahydro-2H-pyran-4-yl)ethynyl)-2,3,4,5-tetrahydrobenzo[b][1,4]oxazepin-3-yl)-4-((6-methylpyridin-2-yl)methyl)-1H-pyrazole-1-carboxamide] | 16.4 nM | 7.3 nM | 1.7 | 190 nM |
| Cc1cccc(Cc2cnn(C(=O)N[C@H]3CCc4ccc(C#CC5(O)COC5)cc4N(C)C3=O)c2)n1 [I-120, (S)—N-(8-((3-Hydroxyoxetan-3-yl)ethynyl)-1-methyl-2-oxo-2,3,4,5-tetrahydro-1H-benzo[b]azepin-3-yl)-4-((6-methylpyridin-2-yl)methyl)-1H-pyrazole-1-carboxamide] | 17.2 nM | 9.5 nM | 11 | 233 nM |
| Cc1cccc(Oc2ccnc(C(=O)N[C@H]3COc4ccc(C#CC(C)(C)O)cc4N(C)C3=O)c2)n1 [I-130, (S)—N-(7-(3-hydroxy-3-methylbut-1-yn-1-yl)-5-methyl-4-oxo-2,3,4,5-tetrahydrobenzo[b][1,4]oxazepin-3-yl)-4-((6-methylpyridin-2-yl)oxy)picolinamide] | 33.4 nM | 311 nM | – | 5040 nM |
| Cc1cccc(Oc2ccnc(C(=O)N[C@H]3COc4ccc(C#CC5(O)COC5)cc4N(C)C3=O)c2)n1 [I-131, (S)—N-(7-((3-hydroxyoxetan-3-yl)ethynyl)-5-methyl-4-oxo-2,3,4,5-tetrahydrobenzo[b][1,4]oxazepin-3-yl)-4-((6-methylpyridin-2-yl)oxy)picolinamide] | 24.5 nM | 263 nM | – | 2670 nM |
| CN1C(=O)[C@@H](NC(=O)c2cc(Oc3cnn(C)c3)ccn2)COc2ccc(C#CC(C)(C)C)cc21 [I-132, (S)—N-(7-(3,3-dimethylbut-1-yn-1-yl)-5-methyl-4-oxo-2,3,4,5-tetrahydrobenzo[b][1,4]oxazepin-3-yl)-4-((1-methyl-1H-pyrazol-4-yl)oxy)picolinamide] | 24.2 nM | 4.1 nM | – | 71.8 nM |
| CN1C(=O)[C@@H](NC(=O)c2cc(Oc3cnn(C)c3)ccn2)COc2ccc(C#CC3(O)CCC3)cc21 [I-133, (S)—N-(7-((1-hydroxycyclobutyl)ethynyl)-5-methyl-4-oxo-2,3,4,5-tetrahydrobenzo[b][1,4]oxazepin-3-yl)-4-((1-methyl-1H-pyrazol-4-yl)oxy)picolinamide] | 14 nM | 5.2 nM | – | 58.2 nM |
| CN1C(=O)[C@@H](NC(=O)c2cc(Oc3cnn(C)c3)ccn2)COc2ccc(C#CC3CCOCC3)cc21 [I-136, (S)-4-((1-methyl-1H-pyrazol-4-yl)oxy)-N-(5-methyl-4-oxo-7-((tetrahydro-2H-pyran-4-yl)ethynyl)-2,3,4,5-tetrahydrobenzo[b][1,4]oxazepin-3-yl)picolinamide] | 7.7 nM | 0.7 nM | – | 5.4 nM |
| CN1C(=O)[C@@H](NC(=O)c2cc(Cc3cocn3)ccn2)COc2ccc(C#CC(C)(C)O)cc21 [I-137, (S)—N-(7-(3-hydroxy-3-methylbut-1-yn-1-yl)-5-methyl-4-oxo-2,3,4,5-tetrahydrobenzo[b][1,4]oxazepin-3-yl)-4-(oxazol-4-ylmethyl)picolinamide] | 11.9 nM | 25.5 nM | – | 87.4 nM |

Reference: patent US12156880B2, “Heterocyclic RIP1 kinase inhibitors” (Rigel Pharmaceuticals, Inc., priority 2021, dated 2024)
